Here are results for one compound from US20100016598A1 (WYETH, priority 2008, published 2010).

The target of assay [1] is T1, alpha7 nicotinic acetylcholine receptor (Rattus norvegicus, UniProt Q05941).
T1 construct: expressed in transfected cells
Nature of the assay: functional FLIPR assay, alpha7 nAChR stably expressed in GH4C1 cells. The following applies: GH4C1 cell line expressing the alpha7 nAChR; concentration-response curves; read-out: Alpha 7 EC50. The assay is classed as cell-based.
Description: Rat GH4C1 cells were then transfected with the rat receptor, cloned and analyzed for functional alpha7 nicotinic receptor expression employing a FLIPR assay to measure changes in intracellular calcium concentrations.
The FLIPR system allows the measurements of real time Ca^2+-concentration changes in living cells using a Ca^2+ sensitive fluorescence dye (such as Fluo4). This instrument enables the screening for agonists and antagonists for alpha 7 nAChR channels stably expressed in GH4C1 cells.
GH4C1 cells stably transfected with rat-alpha7-nAChR (see above) were used. These cells are poorly adherent and therefore pretreatment of flasks and plates with poly-D-lysine was carried out. Cells are grown in 150 cm^2 T-flasks, filled with 30ml of medium at 37° C. and 5% CO2.
EC50 and IC50 values were calculated using the IDBS XLfit4.1 software package employing a sigmoidal concentration-response (variable slope) equation:
Certain compounds of the present disclosure were tested using the functional FLIPR primary screening assay employing the stable recombinant GH4C1 cell line expressing the alpha7 nAChR. Hits identified were validated further by generation of concentration-response curves.

The target in assay [2] is T2, alpha3 (ganglionic) nACh receptors (Homo sapiens, UniProt P30926+P32297).
T2 construct: using the native SH-SY5Y cell line; endogenous in cells; host or cells: SH-SY5Y
Nature of the assay: calcium-monitoring FLIPR selectivity assay using the native SH-SY5Y cell line. The assay is classed as cell-based. The following applies: read-out: Alpha 3 EC50. The text has this:
Functional FLIPR assays were developed in order to test the selectivity of compounds against the alpha1 (muscular) and alpha3 (ganglionic) nACh receptors and the structurally related 5-HT3 receptor. […] In order to test selectivity against the 5-HT3 receptor, a recombinant cell line was constructed expressing the human 5-HT3A receptor in HEK 293 cells and a calcium-monitoring FLIPR assay employed.

T1 sequence (Q05941 23-502): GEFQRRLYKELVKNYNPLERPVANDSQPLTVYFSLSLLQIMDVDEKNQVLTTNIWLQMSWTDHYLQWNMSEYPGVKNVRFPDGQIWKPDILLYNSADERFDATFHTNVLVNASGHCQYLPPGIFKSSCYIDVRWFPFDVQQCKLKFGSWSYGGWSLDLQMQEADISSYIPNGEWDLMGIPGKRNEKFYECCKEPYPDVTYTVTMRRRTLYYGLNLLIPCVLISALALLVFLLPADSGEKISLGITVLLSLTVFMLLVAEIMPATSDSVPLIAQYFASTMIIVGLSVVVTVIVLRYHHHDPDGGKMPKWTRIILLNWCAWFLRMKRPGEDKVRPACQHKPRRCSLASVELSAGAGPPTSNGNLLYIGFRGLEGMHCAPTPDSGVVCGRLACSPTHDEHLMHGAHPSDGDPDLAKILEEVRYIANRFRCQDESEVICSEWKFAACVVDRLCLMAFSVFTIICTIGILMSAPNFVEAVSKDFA
T2 sequence (P32297 32-505): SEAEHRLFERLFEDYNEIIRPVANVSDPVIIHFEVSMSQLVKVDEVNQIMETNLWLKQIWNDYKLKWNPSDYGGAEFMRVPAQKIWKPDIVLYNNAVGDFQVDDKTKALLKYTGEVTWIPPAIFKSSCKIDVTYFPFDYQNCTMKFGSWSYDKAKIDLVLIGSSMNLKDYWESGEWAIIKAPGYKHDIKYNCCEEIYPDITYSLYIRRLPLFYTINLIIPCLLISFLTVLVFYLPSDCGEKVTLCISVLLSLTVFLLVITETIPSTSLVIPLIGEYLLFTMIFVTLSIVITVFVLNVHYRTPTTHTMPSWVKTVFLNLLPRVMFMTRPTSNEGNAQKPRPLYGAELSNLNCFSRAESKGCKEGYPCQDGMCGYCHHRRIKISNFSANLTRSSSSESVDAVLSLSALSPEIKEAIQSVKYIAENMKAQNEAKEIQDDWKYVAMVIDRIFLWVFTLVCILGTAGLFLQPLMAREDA
T2 sequence (P30926 22-498): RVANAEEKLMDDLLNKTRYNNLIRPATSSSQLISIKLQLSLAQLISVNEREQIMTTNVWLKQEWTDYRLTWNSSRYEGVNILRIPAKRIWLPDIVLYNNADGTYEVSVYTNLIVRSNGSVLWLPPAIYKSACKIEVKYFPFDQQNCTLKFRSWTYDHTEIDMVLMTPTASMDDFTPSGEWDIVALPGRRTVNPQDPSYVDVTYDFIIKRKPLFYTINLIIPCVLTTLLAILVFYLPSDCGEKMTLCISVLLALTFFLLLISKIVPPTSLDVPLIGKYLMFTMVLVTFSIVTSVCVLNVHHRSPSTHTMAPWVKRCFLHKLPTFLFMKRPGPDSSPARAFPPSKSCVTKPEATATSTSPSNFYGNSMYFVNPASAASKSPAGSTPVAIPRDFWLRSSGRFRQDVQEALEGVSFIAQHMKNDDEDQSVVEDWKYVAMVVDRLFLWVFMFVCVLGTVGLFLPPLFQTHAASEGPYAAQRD

In general, EC50 refers to the midpoint of the concentration-response curve. For `COc1ncccc1-c1ccc(NC(=O)NCCCCN2CCCCC2)cc1`, the results for the EC50 in assay [1] and in assay [2] were 60 nM and 5.67 µM, respectively.
